Assay type in all cases: in vivo
The test system of test [1] is Monocots. Description: Herbicidal activity, preemergence, monocot weeds in flats (% control). The following applies: pre-emergence, 336 h, about 2 weeks after application, percent of plants killed; for activity at 11208.5 g/ha: monocots (4 species, average), 10 lb./A.; for activity at 4483.4 g/ha / activity at 2241.7 g/ha: monocots (10 species, average); for activity at 4483.4 g/ha: 4 lb./A.; for activity at 2241.7 g/ha: 2 lb./A. How it is done: (§1) Using the procedure described below, diphenyl ethers were evaluated for control of the following weeds: At 10 pounds per acre: […]
(§2) barnyardgrass (Echinochloa crusgalli) crabgrass (Digitaria spp.) nutsedge (Cyperus esculentus)
(§3) At 2 and 4 pounds per acre: […]
(§4) downy brome (Bromus tectorum) foxtail (Setaria faberii)
(§5) Johnsongrass (Sorghum halepense) […]
(§6) quackgrass (Agropyron repens) ryegrass (Lolium perenne) […]
(§7) yellow millet (Panicum miliaceum)
(§8) The following test procedure is employed. Seeds of selected crops and weeds are planted in soil in flats. For preemergence tests, the flats are treated with the test compound immediately after the planting. For post-emergence tests, the seeds are allowed to germinate, and after 2 weeks the flats are treated with the test compound. The compound to be evaluated is dissolved in acetone, diluted with water, and sprayed over the flats using a carrier volume equivalent to 50 gallons per acre at the rate of application (pounds per acre, lb/A.) specified in the tables. About 2 weeks after the application of the test compound, the state of growth of the plant is observed and the phytotoxic effect of the compound is evaluated. Table II gives the average percent control achieved by the test compounds in terms of the percent of the plants which are killed by the compounds.

For test [2], the system named is Dicots. Description: Herbicidal activity, postemergence, dicot weeds in flats (% control). The following applies: post-emergence, 336 h, dicots (10 species, average), about 2 weeks after application, percent of plants killed; for activity at 4483.4 g/ha: 4 lb./A.; for activity at 2241.7 g/ha: 2 lb./A.
Test [3] concerns Monocots. Nature of the test: Herbicidal activity, postemergence, monocot weeds in flats (% control). The following applies: post-emergence, 336 h, about 2 weeks after application, percent of plants killed; for activity at 11208.5 g/ha: monocots (4 species, average), 10 lb./A.; for activity at 4483.4 g/ha / activity at 2241.7 g/ha: monocots (10 species, average); for activity at 4483.4 g/ha: 4 lb./A.; for activity at 2241.7 g/ha: 2 lb./A. On the procedure: as §1, §2, §3, §4, §5, §6, §7, §8

Test [4] concerns Dicots. Nature of the test: Herbicidal activity, preemergence, dicot weeds in flats (% control). The following applies: pre-emergence, 336 h, dicots (10 species, average), about 2 weeks after application, percent of plants killed; for activity at 4483.4 g/ha: 4 lb./A.; for activity at 2241.7 g/ha: 2 lb./A.
Test [5] relates to Dicots. Description: Herbicidal activity, postemergence, dicot weeds in flats (% control). The following applies: post-emergence, 336 h, dicots (4 species, average), 10 lb./A., about 2 weeks after application, percent of plants killed. How it is done: as §1
(§9) bindweed (Convolvulus arvensis) curly dock (Rumex crispus) velvetleaf (Abutilon theophrasti) wild mustard (Brassica haber)
as §3
(§10) cocklebur (Xanthium pensylvanicum) […]
(§11) lambsquarters (Chenopodium album) morningglory (Ipomoea purpurea) pigweed (Amaranthus retroflexus) smartweed (Polygonum pensylvanicum) […]
(§12) wild carrot (Daucus carota)
as §8

For test [6], the system named is Dicots. Description: Herbicidal activity, preemergence, dicot weeds in flats (% control). The following applies: pre-emergence, 336 h, dicots (4 species, average), 10 lb./A., about 2 weeks after application, percent of plants killed. On the procedure: as §1, §9, §3, §10, §11, §12, §8

As for `N#Cc1cc(F)ccc1Oc1ccc([N+](=O)[O-])cc1` [Example 1, 2-cyano-4-fluoro-4'-nitrodiphenyl ether], the activity at 11208.5 g/ha with Monocots [1] was determined as 77%; in the test on Monocots [3] it was 95%; in the test on Dicots [5], 100%; with Dicots [6], 77%. Further, the activity at 4483.4 g/ha with Monocots [1] was found to be 47%; with Dicots [2], 58%; in the test with Monocots [3] it was 44%; in the test with Dicots [4], 51%.
On to `N#Cc1cc(Cl)ccc1Oc1ccc([N+](=O)[O-])cc1` [Example 2], for which the activity at 11208.5 g/ha with Monocots [1] worked out at 81%; with Monocots [3], 95%; in the test with Dicots [5], 100%; in the test with Dicots [6], 95%. The activity at 4483.4 g/ha with Monocots [1] is 49%; in the test on Dicots [2], 64%; in the test on Monocots [3], 44%; in the test on Dicots [4] it was 55%.
Regarding `N#Cc1cc(C(F)(F)F)ccc1Oc1ccc(Cl)cc1` [Example 3, 2-cyano-α,α,α-trifluoro-p-tolyl-4-chlorophenylether], the activity at 11208.5 g/ha in the test with Monocots [1] amounted to 10%; with Monocots [3], 17%; with Dicots [5] it was 75%; in the test with Dicots [6], 10%. For the same compound, the activity at 2241.7 g/ha in the test on Monocots [1] worked out at 65%; with Dicots [2] it was 50%; in the test on Monocots [3], 27%; in the test on Dicots [4], 61%. In addition, the activity at 4483.4 g/ha was found to be 59% in the test with Monocots [1], 38% in the test with Dicots [2], 9% with Monocots [3] and 40% in the test with Dicots [4].
As for `N#Cc1cc(C(F)(F)F)ccc1Oc1ccc(Br)cc1` [Example 4, 2-cyano-α, α, α-trifluoro-p-tolyl-4-bromophenyl ether], the activity at 11208.5 g/ha in the test on Monocots [1] was 5%; in the test with Monocots [3], 22%; in the test with Dicots [5], 85%; with Dicots [6] it was 0%. In addition, the activity at 2241.7 g/ha in the test on Monocots [1] was 51%; with Dicots [2], 50%; with Monocots [3], 34%; in the test with Dicots [4], 34%. In addition, the activity at 4483.4 g/ha in the test with Monocots [1] stood at 67%; in the test with Dicots [2], 56%; with Monocots [3], 34%; in the test with Dicots [4] it was 37%.
With `N#Cc1ccc(Oc2ccc(C(F)(F)F)cc2C#N)cc1` [Example 5], the activity at 11208.5 g/ha in the test on Monocots [1] is 70%; with Monocots [3], 25%; in the test with Dicots [5], 65%; in the test on Dicots [6] it was 77%. Moreover, the activity at 2241.7 g/ha stood at 42% in the test on Monocots [1], 59% in the test on Dicots [2], 48% with Monocots [3] and 47% with Dicots [4]. Moreover, the activity at 4483.4 g/ha in the test with Monocots [1] was 44%; with Dicots [2], 41%; in the test with Monocots [3], 11%; in the test on Dicots [4] it was 50%.
As to `N#Cc1cc(C(F)(F)F)ccc1Oc1ccc(C(F)(F)F)cc1` [Example 6, 2-cyano-α, α, α-trifluoro-p-tolyl-α,α,α-trifluoro-p-tolyl ether], the activity at 11208.5 g/ha was found to be 0% in the test on Monocots [1], 70% with Monocots [3], 75% in the test on Dicots [5] and 10% with Dicots [6]. Moreover, the activity at 2241.7 g/ha was determined as 34% in the test with Monocots [1], 49% in the test on Dicots [2], 34% in the test with Monocots [3] and 5% with Dicots [4].
In the case of `N#Cc1cc(C(F)(F)F)ccc1Oc1ccc(Cl)c(Cl)c1` [Example 7], the activity at 11208.5 g/ha in the test with Monocots [1] was 0%; in the test on Monocots [3], 40%; in the test on Dicots [5] it was 77%; in the test with Dicots [6], 0%. Moreover, the activity at 2241.7 g/ha was 56% in the test on Monocots [1], 55% in the test with Dicots [2], 36% in the test with Monocots [3] and 65% in the test with Dicots [4]. In addition, the activity at 4483.4 g/ha in the test with Monocots [1] was determined as 66%; in the test with Dicots [2], 64%; in the test on Monocots [3] it was 36%; with Dicots [4], 41%.

The values are drawn from patent US3950379A, “2-Cyano-diphenyl ethers” (Rohm and Haas Company, priority 1974, dated 1976).
